Consider 29 compounds from patent publication US7268128B2, “1,3,5-trisubstituted-5-phenyl and 5-pyridyl pyrazolopyrimidinone derivatives having PDE7 inhibiting action” (Ausbio Pharma Co., Ltd., priority 2001, dated 2007).

Structures can show the parent of a compound that is named as a salt.

The target in the assay is T1, PDE7 (type VII phosphodiesterase) (Homo sapiens, UniProt Q13946).
T1 construct: endogenous in cells; host or cells: MOLT-4 (ATCC CRL-1582), soluble fraction, HiTrapQ anion-exchange fraction
T1 sequence (Q13946 whole entry): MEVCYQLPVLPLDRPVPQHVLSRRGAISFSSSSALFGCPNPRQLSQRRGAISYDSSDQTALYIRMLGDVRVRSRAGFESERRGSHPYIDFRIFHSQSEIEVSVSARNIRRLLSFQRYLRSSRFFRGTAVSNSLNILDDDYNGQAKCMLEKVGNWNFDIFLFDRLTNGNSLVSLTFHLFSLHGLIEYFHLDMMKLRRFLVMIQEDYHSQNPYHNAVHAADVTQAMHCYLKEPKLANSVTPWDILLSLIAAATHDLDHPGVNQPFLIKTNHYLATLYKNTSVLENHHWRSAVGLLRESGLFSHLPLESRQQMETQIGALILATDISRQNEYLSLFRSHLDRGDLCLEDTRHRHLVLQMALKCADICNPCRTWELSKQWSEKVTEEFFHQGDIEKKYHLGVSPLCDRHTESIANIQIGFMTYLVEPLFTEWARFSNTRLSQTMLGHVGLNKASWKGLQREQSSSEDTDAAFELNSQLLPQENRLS
Put plainly: PDE7 inhibiting activity (3H-cAMP hydrolysis, active fraction from MOLT-4 cells). Type of assay: biochemical. As to conditions: PDE7 fraction from MOLT-4 cells, 0.064 μM cAMP, 10 μM rolipram present, 2 hours at 25° C.; read-out: IC50 values for phosphodiesterase inhibiting activities (PDE7). A digest of the protocol:
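PDE7 from MOLT-4 cell soluble fraction, HiTrapQ NaCl-gradient purified. Compounds reacted 2 h at 25° C in 20 mM tris-HCl pH 7.5, 1 mM MgCl2, 0.1 μCi 3H-cAMP (0.064 μM cAMP), 10 μM rolipram, 5′-nucleotidase; QAE-Sephadex-separated supernatant counted.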
Regarding `COc1cc(N2CCCN(C)CC2)ccc1-c1nc2c(C)nn(C3CCCCC3)c2c(=O)[nH]1` [Example 112, 1-Cyclohexyl-5-[2-methoxy-4-(4-methyl-1,4-diazepan-1-yl)phenyl]-3-methyl-1,6-dihydro-7H-pyrazolo[4,3-d]pyrimidin-7-one], the IC50 (usually the midpoint of a concentration-inhibition curve) is ≤ 1000 nM. The same measure for `CCN(CCO)c1ccc(-c2nc3c(C)nn(C4CCCCC4)c3c(=O)[nH]2)c(OC)c1` [Example 115, 1-Cyclohexyl-5-{4-[(2-hydroxyethyl)(ethyl)amino]-2-methoxyphenyl}-3-methyl-1,6-dihydro-7H-pyrazolo[4,3-d]pyrimidin-7-one monohydrochloride]: ≤ 1000 nM; for `CCOc1cc(NCCOC)ccc1-c1nc2c(c(C3CCCCC3)nn2C)c(=O)[nH]1` [Example 117, 3-Cyclohexyl-6-{2-ethoxy-4-[(2-methoxyethyl)amino]phenyl}-1-methyl-1,5-dihydro-4H-pyrazolo[3,4-d]pyrimidin-4-one]: ≤ 10 nM; for `COc1cc(N2CCC(N(C)C=O)CC2)ccc1-c1nc2c(C)nn(C3CCCCC3)c2c(=O)[nH]1` [Example 118, 1-[4-(1-Cyclohexyl-3-methyl-7-oxo-6,7-dihydro-1H-pyrazolo[4,3-d]pyrimidin-5-yl)-3-methoxyphenyl]-4-piperidiny(methyl)formamide]: ≤ 1000 nM.

Consider `COc1cc(N2CCC(N(C)C(C)=O)CC2)ccc1-c1nc2c(C)nn(C3CCCCC3)c2c(=O)[nH]1` [Example 119, N-{1-[4-(1-cyclohexyl-3-methyl-7-oxo-6,7-dihydro-1H-pyrazolo[4,3-d]pyrimidin-5-yl)-3-methoxyphenyl]-4-piperidiny}-N-methylacetamide], for which the IC50 was ≤ 1000 nM.

With `CCOc1cc(N2CCC(NC)CC2)ccc1-c1nc2c(C)nn(C3CCCCC3)c2c(=O)[nH]1` [Example 121, 1-Cyclohexyl-5-{2-ethoxy-4-[4-(methylamino)-1-piperidinyl]phenyl}-3-methyl-1,6-dihydro-7H-pyrazolo[4,3-d]pyrimidin-7-one], the IC50 is ≤ 10 nM. In the case of `COc1cc(C2=CCN(C)CC2)ccc1-c1nc2c(C)nn(C3CCCCC3)c2c(=O)[nH]1` [Example 123, 1-Cyclohexyl-5-[2-methoxy-4-(1-methyl-1,2,3,6-tetrahydro-4-pyridinyl)phenyl]-3-methyl-1,6-dihydro-7H-pyrazolo[4,3-d]pyrimidin-7-one], the IC50 is ≤ 1000 nM. To `COc1cc(C2CCN(C)CC2)ccc1-c1nc2c(C)nn(C3CCCCC3)c2c(=O)[nH]1` [Example 124, 1-Cyclohexyl-5-[2-methoxy-4-(1-methyl-4-piperidinyl)phenyl]-3-methyl-1,6-dihydro-7H-pyrazolo[4,3-d]pyrimidin-7-one] belongs ≤ 1000 nM; to `COc1cc(N2CCCNCC2)ccc1-c1nc2c(C)nn(C3CCCCC3)c2c(=O)[nH]1` [Example 125, 1-Cyclohexyl-5-[4-(1,4-diazepan-1-yl)-2-methoxyphenyl]-3-methyl-1,6-dihydro-7H-pyrazolo[4,3-d]pyrimidin-7-one], ≤ 10 nM; to `COc1cc(N2CCCN(C(C)=O)CC2)ccc1-c1nc2c(C)nn(C3CCCCC3)c2c(=O)[nH]1` [Example 126, 5-[4-(4-Acetyl-1,4-diazepan-1-yl)-2-methoxyphenyl]-1-cyclohexyl-3-methyl-1,6-dihydro-7H-pyrazolo[4,3-d]pyrimidin-7-one], ≤ 1000 nM. To `CCN1CCCN(c2ccc(-c3nc4c(C)nn(C5CCCCC5)c4c(=O)[nH]3)c(OC)c2)CC1` [Example 127, 1-Cyclohexyl-5-[4-(4-ethyl-1,4-diazepan-1-yl)-2-methoxyphenyl]-3-methyl-1,6-dihydro-7H-pyrazolo[4,3-d]pyrimidin-7-one] belongs ≤ 1000 nM.

As for `CNC1CCN(c2cc(OC)c(-c3nc4c(C)nn(C5CCCCC5)c4c(=O)[nH]3)cc2F)CC1` [Example 129, 1-Cyclohexyl-5-{5-fluoro-2-methoxy-4-[4-(methylamino)-1-piperidinyl]phenyl}-3-methyl-1,6-dihydro-7H-pyrazolo[4,3-d]pyrimidin-7-one], the IC50 was ≤ 1000 nM. To `CCOc1cc(N2CCCN(C)CC2)ccc1-c1nc2c(C)nn(C3CCCCC3)c2c(=O)[nH]1` [Example 130, 1-Cyclohexyl-5-[4-(4-methyl-1,4-diazepan-1-yl)-2-ethoxyphenyl]-3-methyl-1,6-dihydro-7H-pyrazolo[4,3-d]pyrimidin-7-one] belongs ≤ 1000 nM; to `COc1cc(N(C)CCN(C)C)ccc1-c1nc2c(c(C3CCCCC3)nn2C)c(=O)[nH]1` [Example 132, 3-Cyclohexyl-6-{4-[[2-(dimethylamino)ethyl](methyl)amino]-2-methoxyphenyl}-1-methyl-1,5-dihydro-4H-pyrazolo[3,4-d]pyrimidin-4-one monomethanesulfonate], ≤ 10 nM; to `COc1cc(N2CCCNCC2)ccc1-c1nc2c(c(C3CCCCC3)nn2C)c(=O)[nH]1` [Example 134, 3-Cyclohexyl-6-[4-(1,4-diazepan-1-yl)-2-methoxyphenyl]-1-methyl-1,5-dihydro-4H-pyrazolo[3,4-d]pyrimidin-4-one monomethanesulfonate], ≤ 10 nM. Regarding `COc1cc(N2CCCN(C)CC2)ccc1-c1nc2c(c(C3CCCCC3)nn2C)c(=O)[nH]1` [Example 136, 3-Cyclohexyl-6-[2-methoxy-4-(4-methyl-1,4-diazepan-1-yl)phenyl]-1-methyl-1,5-dihydro-4H-pyrazolo[3,4-d]pyrimidin-4-one monomethanesulfonate], the IC50 is ≤ 10 nM. On to `CN1CCN(c2ccc(-c3nc4c(c(C5CCCCC5)nn4C)c(=O)[nH]3)c(OC(F)F)c2)CC1` [Example 139, 3-Cyclohexyl-6-[2-(difluoromethoxy)-4-(4-methyl-1-piperazinyl)phenyl]-1-methyl-1,5-dihydro-4H-pyrazolo[3,4-d]pyrimidin-4-one monomethanesulfonate], for which the IC50 was ≤ 1000 nM.

For `COc1cc(NC(N)=O)ccc1-c1nc2c(c(C3CCCCC3)nn2C)c(=O)[nH]1` [Example 140, N-[4-(3-cyclohexyl-1-methyl-4-oxo-4,5-dihydro-1H-pyrazolo[3,4-d]pyrimidin-6-yl)-3-methoxyphenyl]urea], the half-maximal inhibitory concentration (IC50) is ≤ 10 nM. The same measure for `COc1cc(NS(C)(=O)=O)ccc1-c1nc2c(c(C3CCCCC3)nn2C)c(=O)[nH]1` [Example 142, N-[4-(3-cyclohexyl-1-methyl-4-oxo-4,5-dihydro-1H-pyrazolo[3,4-d]pyrimidin-6-yl)-3-methoxyphenyl]methanesulfonamide]: ≤ 10 nM; for `COc1cc(N2CCOC2=O)ccc1-c1nc2c(c(C3CCCCC3)nn2C)c(=O)[nH]1` [Example 143, 3-Cyclohexyl-6-[2-methoxy-4-(2-oxo-1,3-oxazolidin-3-yl)phenyl]-1-methyl-1,5-dihydro-4H-pyrazolo[3,4-d]pyrimidin-4-one]: ≤ 10 nM; for `COc1cc(N2CCNC2=O)ccc1-c1nc2c(c(C3CCCCC3)nn2C)c(=O)[nH]1` [Example 144, 3-Cyclohexyl-6-[2-methoxy-4-(2-oxo-1-imidazolidinyl)phenyl]-1-methyl-1,5-dihydro-4H-pyrazolo[3,4-d]pyrimidin-4-one]: ≤ 10 nM. Consider `CCOC(=O)Nc1ccc(-c2nc3c(c(C4CCCCC4)nn3C)c(=O)[nH]2)c(OC)c1` [Example 145, Ethyl 4-(3-cyclohexyl-1-methyl-4-oxo-4,5-dihydro-1H-pyrazolo[3,4-d]pyrimidin-6-yl)-3-methoxyphenylcarbamate], for which the IC50 is ≤ 10 nM. The same measure for `COc1cc(N(C)C(C)=O)ccc1-c1nc2c(c(C3CCCCC3)nn2C)c(=O)[nH]1` [Example 146, N-[4-(3-cyclohexyl-1-methyl-4-oxo-4,5-dihydro-1H-pyrazolo[3,4-d]pyrimidin-6-yl)-3-methoxyphenyl]-N-methylacetamide]: ≤ 1000 nM; for `COc1cc(N(C)S(C)(=O)=O)ccc1-c1nc2c(c(C3CCCCC3)nn2C)c(=O)[nH]1` [Example 147, N-[4-(3-cyclohexyl-1-methyl-4-oxo-4,5-dihydro-1H-pyrazolo[3,4-d]pyrimidin-6-yl)-3-methoxyphenyl]-N-methylmethanesulfonamide]: ≤ 1000 nM; for `COc1cc(NC(=O)N2CCOCC2)ccc1-c1nc2c(c(C3CCCCC3)nn2C)c(=O)[nH]1` [Example 148, N-[4-(3-cyclohexyl-1-methyl-4-oxo-4,5-dihydro-1H-pyrazolo[3,4-d]pyrimidin-6-yl)-3-methoxyphenyl]-4-morpholinecarboxamide]: ≤ 10 nM. The same measure for `CNC1CCN(c2ccc(-c3nc4c(c(C5CCCCC5)nn4C)c(=O)[nH]3)c(OC)c2)CC1` [Example 150, 3-Cyclohexyl-6-{2-methoxy-4-[4-(methylamino)-1-piperidinyl]phenyl}-1-methyl-1,5-dihydro-4H-pyrazolo[3,4-d]pyrimidin-4-one monomethanesulfonate]: ≤ 10 nM; for `COc1cc(N2CCN(C)C2=O)ccc1-c1nc2c(c(C3CCCCC3)nn2C)c(=O)[nH]1` [Example 152, 3-Cyclohexyl-6-[2-methoxy-4-(3-methyl-2-oxo-1-imidazolidinyl)phenyl]-1-methyl-1,5-dihydro-4H-pyrazolo[3,4-d]pyrimidin-4-one]: ≤ 10 nM; for `COc1cc(N2CCC(N(C)C)CC2)ccc1-c1nc2c(c(C3CCCCC3)nn2C)c(=O)[nH]1` [Example 154, 3-Cyclohexyl-6-{4-[4-(dimethylamino)-1-piperidinyl]-2-methoxyphenyl}-1-methyl-1,5-dihydro-4H-pyrazolo[3,4-d]pyrimidin-4-one monomethanesulfonate]: ≤ 10 nM. `COc1cc(N2CCCS2(=O)=O)ccc1-c1nc2c(c(C3CCCCC3)nn2C)c(=O)[nH]1` [Example 155, 3-Cyclohexyl-6-[4-(1,1-dioxido-2-isothiazolidinyl)-2-methoxyphenyl]-1-methyl-1,5-dihydro-4H-pyrazolo[3,4-d]pyrimidin-4-one]: the IC50 is ≤ 10 nM.
